Data from patent US20090005395A1 (Solvay Pharmaceuticals, B.V., priority 2007, published 2009).
Where two headings read alike, the source gives them in different places.

What was measured:
CYP3A4 = CYP3A4 (Homo sapiens, UniProt P08684); conditions: cited from earlier work
PDE-IV = test: In vitro inhibition of phosphodiesterases (CEREP): PDE-IV; conditions: human U-937 monocytes
PDE-I = test: In vitro inhibition of phosphodiesterases (CEREP): PDE-I; conditions: bovine brain
[1] = Plasma and brain concentrations of sildenafil and its N-oxide after i.v. or p.o. administration to mice (LC-MS/MS); assay type: in vivo, male NMRI mice; conditions: sildenafil administered i.v. or p.o.
Protocol: Sildenafil and its N-oxide were analyzed in mouse plasma and brain samples using a generic bioanalytical method comprising protein precipitation and HPLC with MS/MS detection.
Sample preparation: Proteins in 100 μl plasma were precipitated with acetonitrile, and 5 μl samples of the obtained solution were analyzed. Complete brains were homogenized and centrifuged, and 10 μl samples of the supernatant were analyzed.
Liquid Chromatography-Tandem Mass Spectrometry (LC-MS/MS) was performed using a Sciex API4000 LC-MS/MS. Quantification of the samples was done using extracted calibration samples, treated the same as the study samples in the range of 1-5000 ng/ml and 5.0-5000 ng/brain for plasma and brains samples, respectively. Compound peak area was used for quantification. The calibration curves were fitted to the model y=A+Bx+Cx^2 (y is the peak area of the analyte, x is the nominal calibration level in ng/ml (plasma) or ng/g (brain), A is the intercept, B is the slope and C is the description of the curvature). 1/x^2 weighing was used. LC-MS/MS system performance was monitored using a reference solution injected at standard intervals. The method use for testing was not validated in detail, therefore the reported concentrations were good estimations. The Lower Limit Of Quantification (LLOQ) was established at 1.00 ng/ml and 5.00 ng/brain, for plasma and brain samples, respectively. […]

CYP2C9 = CYP2C9 (Homo sapiens, UniProt P11712); conditions: cited from earlier work
PDE-V = PDE-V (Homo sapiens, UniProt O76074); conditions: cited from earlier work
[2] = Plasma pharmacokinetics of sildenafil and its N-oxide; assay type: in vivo; conditions: male, NMRI, mouse, mice, plasma; for AUC: Tend = 7 hrs, read-out: AUC0→end; for AUC(0-inf): Tend = ∞
Protocol: Liquid Chromatography-Tandem Mass Spectrometry (LC-MS/MS) was performed using a Sciex API4000 LC-MS/MS. […] Compound peak area was used for quantification. The calibration curves were fitted to the model y=A+Bx+Cx^2 (y is the peak area of the analyte, x is the nominal calibration level in ng/ml (plasma) or ng/g (brain), A is the intercept, B is the slope and C is the description of the curvature). 1/x^2 weighing was used. LC-MS/MS system performance was monitored using a reference solution injected at standard intervals. […] The Lower Limit Of Quantification (LLOQ) was established at 1.00 ng/ml and 5.00 ng/brain, for plasma and brain samples, respectively. Reversed phase HPLC was performed using gradient elution by a Hypersil BDS C18 100×4.6 mm 3 μm analytical column, with a temperature of 45° C. and a flow of 1.00 ml/min: […]

[3] = in vivo; cited from earlier work

Sequence of CYP3A4 (P08684 whole entry): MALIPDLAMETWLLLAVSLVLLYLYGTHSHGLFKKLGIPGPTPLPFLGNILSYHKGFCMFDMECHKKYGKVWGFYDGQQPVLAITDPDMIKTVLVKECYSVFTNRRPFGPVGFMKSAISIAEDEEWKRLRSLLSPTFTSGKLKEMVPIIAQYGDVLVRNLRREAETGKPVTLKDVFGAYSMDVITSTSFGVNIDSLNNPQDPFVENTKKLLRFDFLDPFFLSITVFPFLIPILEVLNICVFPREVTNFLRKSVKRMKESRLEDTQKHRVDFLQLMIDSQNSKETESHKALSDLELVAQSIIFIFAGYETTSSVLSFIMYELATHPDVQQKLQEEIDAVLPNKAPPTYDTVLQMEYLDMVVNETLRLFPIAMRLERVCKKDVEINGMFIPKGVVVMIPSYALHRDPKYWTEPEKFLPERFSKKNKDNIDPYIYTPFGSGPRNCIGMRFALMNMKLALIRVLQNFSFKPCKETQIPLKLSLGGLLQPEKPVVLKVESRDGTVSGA
Sequence of CYP2C9 (P11712 whole entry): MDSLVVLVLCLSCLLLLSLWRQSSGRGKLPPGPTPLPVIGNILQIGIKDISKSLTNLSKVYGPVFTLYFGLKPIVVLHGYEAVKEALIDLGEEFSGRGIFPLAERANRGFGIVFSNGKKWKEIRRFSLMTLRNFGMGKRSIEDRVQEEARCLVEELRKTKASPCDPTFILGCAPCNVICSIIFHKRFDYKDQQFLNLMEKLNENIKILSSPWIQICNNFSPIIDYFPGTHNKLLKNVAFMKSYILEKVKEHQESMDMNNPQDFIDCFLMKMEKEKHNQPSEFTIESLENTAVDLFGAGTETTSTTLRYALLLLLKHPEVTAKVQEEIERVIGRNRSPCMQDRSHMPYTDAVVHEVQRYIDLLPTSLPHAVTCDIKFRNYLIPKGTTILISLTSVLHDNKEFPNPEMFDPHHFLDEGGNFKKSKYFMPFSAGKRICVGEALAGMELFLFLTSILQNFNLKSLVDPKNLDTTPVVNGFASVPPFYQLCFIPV

CCCc1nn(C)c2c(=O)[nH]c(-c3cc(S(=O)(=O)N4CCN(C)CC4)ccc3OCC)nc12 [Sildenafil, 1-[4-ethoxy-3-(6,7-dihydro-1-methyl-7-oxo-3-propyl-1H-pyrazolo[4,3-d]pyrimidin-5-yl)phenyl-sulfonyl]-4-methylpiperazine, reference compound]
clearance route by hepatic microsomal iso-enzyme CYP3A4 (CYP3A4): major route | pIC50 PDE-IV (PDE-IV): 4.8 | pIC50 PDE-I (PDE-I): 5.0 | N-oxide in the brain [1]: no trace can be found at all | clearance route by hepatic microsomal iso-enzyme CYP2C9 (CYP2C9): minor route | more potent on PDE-V than on PDE-1 (PDE-V; in vitro, versus PDE-1): > 80 fold | more potent on PDE-V than on PDE-II (PDE-V; in vitro, versus PDE-II): > 700 fold | more potent on PDE-V than on PDE-IV (PDE-V; in vitro, versus PDE-IV): > 700 fold | more potent on PDE-V than on PDE-IX (PDE-V; in vitro, versus PDE-IX): > 700 fold | more potent on PDE-V than on PDE-VI (PDE-V; in vitro, versus PDE-VI): about 10 fold | more potent on PDE-V than on PDE-VII (PDE-V; in vitro, versus PDE-VII): > 700 fold | more potent on PDE-V than on PDE-VIII (PDE-V; in vitro, versus PDE-VIII): > 700 fold | more potent on PDE-V than on PDE-X (PDE-V; in vitro, versus PDE-X): > 700 fold | more potent on PDE-V than on PDE-XI (PDE-V; in vitro, versus PDE-XI): > 700 fold | Tmax ([2]; iv, i.v. 1 mg/kg): 0 h | half-life ([2]; iv, i.v. 1 mg/kg): 1.4 h | AUC ([2]; iv, i.v. 1 mg/kg): 232 ng·h/mL | AUC(0-inf) ([2]; iv, i.v. 1 mg/kg): 232 ng·h/mL | Cmax ([2]; iv, i.v. 1 mg/kg, extrapolated to T0 (time zero), read-out: Cmax (C0)): 538 ng/mL | Vd ([2]; iv, i.v. 1 mg/kg): 8.9 L/kg | clearance ([2]; iv, i.v. 1 mg/kg): 71.8 mL/min/kg | bioavailability ([2]; po, 10 mg/kg, i.v.): 28.9% | Tmax ([2]; po, p.o. 10 mg/kg): 0.2 h | half-life ([2]; po, p.o. 10 mg/kg): 1.1 h | AUC ([2]; po, p.o. 10 mg/kg): 661 ng·h/mL | AUC(0-inf) ([2]; po, p.o. 10 mg/kg): 670 ng·h/mL | Cmax ([2]; po, p.o. 10 mg/kg, read-out: Cmax): 533 ng/mL

CCCc1nn(C)c2c(=O)[nH]c(-c3cc(S(=O)(=O)N4CCNCC4)ccc3OCC)nc12 [UK 103,320, 1-[[3-(6,7-dihydro-1-methyl-7-oxo-3-propyl-1H-pyrazolo[4,3-d]pyrimidin-5-yl)-4-ethoxy-phenyl]sulfonyl]-piperazine]
in vitro potency for PDE-V relative to the parent drug (PDE-V; of sildenafil): approximately 50% | potency relative to sildenafil (PDE-V; reported): about half | Plasma concentrations of the metabolite relative to those seen for sildenafil [3]: approximately 40%
